Laboratory results reported in patent US11026932B2, “Medicinal composition for preventing or treating inflammatory respiratory disease” (NATIONAL UNIVERSITY CORPORATION OKAYAMA UNIVERSITY, priority 2015, dated 2021).

How the values were obtained:
[1] = compared to a known RXR full agonist; cited from earlier work
[2] = system: bronchial asthma model mice; assay: Bronchial asthma model mice (OVA sensitization and inhaled OVA exposure), evaluation of drug efficacy; format: in vivo, female BALB/c mice; conditions: compared with the untreated group
Procedure: <Preparation of Bronchial Asthma Mice and Evaluation of Drug Efficacy>
Bronchial asthma mice were prepared and used for evaluation of drug efficacy in accordance with the following procedures.
Female BALB/c mice were systemically sensitized by intraperitoneal administration of ovalbumin (OVA) ([…] of OVA emulsified in 2.25 mg aluminum hydroxide in a total volume of 100 μL) on Day 0 and Day 14, and then was exposed to inhaled OVA by an ultrasonic nebulizer (for 20 min, 3 days: Days 28 to 30), to induce asthma reaction.
From Day 25, the mice were fed with a food containing an RXR agonist (NEt-4IB). On Day 32, the mice underwent tracheotomy under anesthesia by pentobarbital administration, followed by insertion of an endotracheal tube. After the tube was connected to a respiratory function measuring equipment, an airway hyperreactivity (airway resistance) was determined for evaluating airway constriction.
Forty eight hours after the last OVA inhalation exposure, airway hyperreactivity in the mice with an endotracheal tube was measured using a respiratory function measuring equipment (Flexivent, SIREQ Inc.). Here, airway hyperreactivity was induced by inhalation of methacholine.
After the procedure 2, the mice were euthanized by exsanguination. After bronchoalveolar lavage, a lung tissue was removed for evaluating an airway tissue.
Also, for a group fed with a common food as an untreated group, an asthma reaction was induced in the same way for determination of airway hyperreactivity and evaluation of airway inflammation.
Two groups which were not sensitized by an OVA and only exposed to inhaled OVA as non-asthma control groups (an RXR agonist medicated feed group and a common feed group) were also evaluated for airway hyperreactivity and airway inflammation in the same way.
The data obtained was analyzed by Anova significance test, in which p<0.01 and p<0.05 to an untreated non-asthma group were indicated by “**” and “*”, respectively. Furthermore, P<0.05 to an untreated asthma group was indicated by “#”.

[3] = system: emphysema model mice; assay: Emphysema model mice (intratracheal swine pancreatic elastase), evaluation of drug efficacy; format: in vivo, female BALB/c mice
Procedure: <Preparation of Emphysema Mice and Evaluation of Drug Efficacy>
Emphysema mice were prepared in accordance with the following procedures described and used for evaluation of drug efficacy.
Under anesthesia by pentobarbital or isoflurane administration, female BALB/c mice were intratracheally administered with swine pancreatic elastase to prepare (day 0) emphysema models.
Control mice were fed with a food containing bexarotene as an existing RXR full agonist.
On Days 4 and 14, the mice underwent tracheotomy again under anesthesia by pentobarbital or xylazine-ketamine administration, followed by insertion of an endotracheal tube, and static lung compliance was measured using a respiratory function measuring equipment ([…], SIREQ Inc.) for evaluating emphysematous alteration. Static lung compliance is an indication of extensibility of a lung tissue, and static lung compliance is increased in emphysema which is a disease associated with tissue destruction in an alveolar region.
After the procedure 3, the mice were euthanized by exsanguination. After bronchoalveolar lavage, a lung tissue was removed for evaluating emphysema.
The data obtained was analyzed by Anova significance test, in which p<0.05 to an untreated non-emphysema group was indicated by “*”. Furthermore, P<0.05 to an untreated emphysema group was indicated by “#”.

[4] = emphysema model mice, 4 days after elastase administration, compared with drug non-administration group

Row | SMILES | increase in triglyceride [1] | IL-5 in supernatant of bronchoalveolar lavage fluid ([2]; ELISA) | IL-13 in supernatant of bronchoalveolar lavage fluid ([2]; ELISA) | inflammatory cell infiltration in a local site of the airway, histopathological investigation of the lung tissue ([2]; HE staining) | eosinophil number in cell fraction of bronchoalveolar lavage fluid [2] | lymphocyte number in cell fraction of bronchoalveolar lavage fluid [2] | total cell number in cell fraction of bronchoalveolar lavage fluid [2] | static lung compliance ([3]; emphysema model mice fed food containing compound from Day -4, measured Days 4 and 14, compared with the untreated group) | macrophages in cell fraction of bronchoalveolar lavage fluid [3, 4] | total cell number in cell fraction of bronchoalveolar lavage fluid [3, 4] | neutrophil number in cell fraction of bronchoalveolar lavage fluid ([3]; emphysema model mice, 4 days after elastase administration, compared with the untreated group) | effect on bronchoalveolar lavage cell numbers compared with the RXR full agonist bexarotene ([3]; emphysema model mice, 4 days after elastase administration, total cell number and macrophages) | average interalveolar distance in lung tissue (emphysematous alteration) ([3]; emphysema model mice, formalin-fixed, HE-stained lung tissue, compared with the untreated group) | anti-inflammatory effect ([3]; emphysema model or bronchial asthma model, repeated oral administration (summary statement))
1 | CCN(c1ccc(C(C)C)c(OCC(C)C)c1)c1ccc(C(=O)O)cn1 [NEt-3IB] | reduces increase in triglyceride | – | – | – | – | – | – | – | – | – | – | – | – | –
2 | CCN(c1ccc(OCC(C)C)c(C(C)C)c1)c1ccc(C(=O)O)cn1 [NEt-4IB] | – | inhibition | inhibition | improvement in inflammatory cell infiltration | reduction | reduction | reduction | significant improvement | significantly reduced | significantly reduced | reduction | remarkably higher | improvement in emphysematous alteration | significant anti-inflammatory effect
